Reference: the supplement of paper PMC8671470

tested on: LAMA-84; assay: cell viability (% survival relative to DMSO control, bortezomib = 0%); higher = less cytotoxic; conditions: 10 nM; 72 h
Summary of the method: (§1)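 Fifteen myeloid leukaemia cell lines were exposed to compounds at 1, 10, 100, 1000 or 10000 nM in 384-well plates for 72 h at 37 °C and 5% CO2. Viability was read by CellTiter-Glo luminescence and normalised, with vehicle as 100% and a 10 µM positive control as 0%. Values are percent survival averaged over duplicates.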

First: CN(C)CCNC(=O)c1cccn2c(=O)c3cc4ccccc4cc3nc12 [Bmh-21]
Second: O=C(/C=C/c1cccnc1)NCCCCC1CCN(C(=O)c2ccccc2)CC1 [Daporinad]
The cell viability of the first is higher: 107% for the first, 6.18% for the second.

Compared with C=C1C(=O)O[C@H](CCCCCCCC)[C@H]1C(=O)O [C75], O=C(Cc1cccc(OC(F)(F)F)c1)Nc1ccc(CCCCc2nnc(NC(=O)Cc3ccccn3)s2)nn1 [CB-839] is lower in cell viability: 102% for the first, 85.8% for the second.

First: O=NN(CCCl)C(=O)NCCCl [Carmustine]
Second: OCCN(CCO)c1nc(N2CCCCC2)c2nc(N(CCO)CCO)nc(N3CCCCC3)c2n1 [Dipyridamole]
The cell viability of the first is lower: 93.1% for the first, 99.6% for the second.

Going from O[C@H]1[C@H](O)[C@@H](O)CN2CC[C@H](O)[C@H]12 [Castanospermine] to N#Cc1ccc(C2CCCc3cncn32)cc1 (stereo not given) [Fadrozole], the cell viability falls from 97.5% to 93.7%.

Going from N=C(N)c1ccc(N=NNc2ccc(C(=N)N)cc2)cc1 [Diminazene] to Cc1nc(-c2ccc(OCC(C)C)c(C#N)c2)sc1C(=O)O [Febuxostat], the cell viability falls from 103% to 95.7%.

Work on Cc1cc(O)c2c(c1)C(=O)c1cc(O)cc(O)c1C2=O [Emodin] yielded a cell viability of 100%.

same assay, conditions: 100 nM; 72 h

Compared with CN(C)CCNC(=O)c1cccn2c(=O)c3cc4ccccc4cc3nc12 [Bmh-21], O=C(/C=C/c1cccnc1)NCCCCC1CCN(C(=O)c2ccccc2)CC1 [Daporinad] is lower in cell viability: 95.2% for the first, 2.02% for the second.

Compared with C=C1C(=O)O[C@H](CCCCCCCC)[C@H]1C(=O)O [C75], O=C(Cc1cccc(OC(F)(F)F)c1)Nc1ccc(CCCCc2nnc(NC(=O)Cc3ccccn3)s2)nn1 [CB-839] is lower in cell viability: 101% for the first, 66.5% for the second.

Going from O=NN(CCCl)C(=O)NCCCl [Carmustine] to OCCN(CCO)c1nc(N2CCCCC2)c2nc(N(CCO)CCO)nc(N3CCCCC3)c2n1 [Dipyridamole], the cell viability rises from 105% to 108%.

O[C@H]1[C@H](O)[C@@H](O)CN2CC[C@H](O)[C@H]12 [Castanospermine] and N#Cc1ccc(C2CCCc3cncn32)cc1 (stereo not given) [Fadrozole] are the same in cell viability: 103% for the first, 103% for the second.

First: N=C(N)c1ccc(N=NNc2ccc(C(=N)N)cc2)cc1 [Diminazene]
Second: Cc1nc(-c2ccc(OCC(C)C)c(C#N)c2)sc1C(=O)O [Febuxostat]
The cell viability of the first is higher: 108% for the first, 92.4% for the second.

With Cc1cc(O)c2c(c1)C(=O)c1cc(O)cc(O)c1C2=O [Emodin] the cell viability was 102%.

same assay, conditions: 1000 nM; 72 h

Going from CN(C)CCNC(=O)c1cccn2c(=O)c3cc4ccccc4cc3nc12 [Bmh-21] to O=C(/C=C/c1cccnc1)NCCCCC1CCN(C(=O)c2ccccc2)CC1 [Daporinad], the cell viability falls from 21.2% to 1.79%.

Compared with C=C1C(=O)O[C@H](CCCCCCCC)[C@H]1C(=O)O [C75], O=C(Cc1cccc(OC(F)(F)F)c1)Nc1ccc(CCCCc2nnc(NC(=O)Cc3ccccn3)s2)nn1 [CB-839] is lower in cell viability: 104% for the first, 66.3% for the second.

Going from O=NN(CCCl)C(=O)NCCCl [Carmustine] to OCCN(CCO)c1nc(N2CCCCC2)c2nc(N(CCO)CCO)nc(N3CCCCC3)c2n1 [Dipyridamole], the cell viability falls from 92.9% to 90.3%.

Compared with O[C@H]1[C@H](O)[C@@H](O)CN2CC[C@H](O)[C@H]12 [Castanospermine], N#Cc1ccc(C2CCCc3cncn32)cc1 (stereo not given) [Fadrozole] is lower in cell viability: 95.8% for the first, 95.5% for the second.

N=C(N)c1ccc(N=NNc2ccc(C(=N)N)cc2)cc1 [Diminazene] and Cc1nc(-c2ccc(OCC(C)C)c(C#N)c2)sc1C(=O)O [Febuxostat] are the same in cell viability: 105% for the first, 105% for the second.

Cc1cc(O)c2c(c1)C(=O)c1cc(O)cc(O)c1C2=O [Emodin] showed a cell viability of 96.5%.

same assay, conditions: 10000 nM; 72 h

Compared with CN(C)CCNC(=O)c1cccn2c(=O)c3cc4ccccc4cc3nc12 [Bmh-21], O=C(/C=C/c1cccnc1)NCCCCC1CCN(C(=O)c2ccccc2)CC1 [Daporinad] is higher in cell viability: 1.47% for the first, 2.17% for the second.

Going from C=C1C(=O)O[C@H](CCCCCCCC)[C@H]1C(=O)O [C75] to O=C(Cc1cccc(OC(F)(F)F)c1)Nc1ccc(CCCCc2nnc(NC(=O)Cc3ccccn3)s2)nn1 [CB-839], the cell viability falls from 106% to 58.4%.

Compared with O=NN(CCCl)C(=O)NCCCl [Carmustine], OCCN(CCO)c1nc(N2CCCCC2)c2nc(N(CCO)CCO)nc(N3CCCCC3)c2n1 [Dipyridamole] is lower in cell viability: 99.3% for the first, 83.7% for the second.

Going from O[C@H]1[C@H](O)[C@@H](O)CN2CC[C@H](O)[C@H]12 [Castanospermine] to N#Cc1ccc(C2CCCc3cncn32)cc1 (stereo not given) [Fadrozole], the cell viability rises from 101% to 107%.

First: N=C(N)c1ccc(N=NNc2ccc(C(=N)N)cc2)cc1 [Diminazene]
Second: Cc1nc(-c2ccc(OCC(C)C)c(C#N)c2)sc1C(=O)O [Febuxostat]
The cell viability of the first is lower: 98.3% for the first, 101% for the second.

Cc1cc(O)c2c(c1)C(=O)c1cc(O)cc(O)c1C2=O [Emodin] gave a cell viability of 112%.

tested on: KCL-22; assay: as above; conditions: 1 nM; 72 h
Summary of the method: as §1

Compared with CN(C)CCNC(=O)c1cccn2c(=O)c3cc4ccccc4cc3nc12 [Bmh-21], O=C(/C=C/c1cccnc1)NCCCCC1CCN(C(=O)c2ccccc2)CC1 [Daporinad] is lower in cell viability: 115% for the first, 83.9% for the second.

Going from C=C1C(=O)O[C@H](CCCCCCCC)[C@H]1C(=O)O [C75] to O=C(Cc1cccc(OC(F)(F)F)c1)Nc1ccc(CCCCc2nnc(NC(=O)Cc3ccccn3)s2)nn1 [CB-839], the cell viability rises from 112% to 116%.

First: O=NN(CCCl)C(=O)NCCCl [Carmustine]
Second: OCCN(CCO)c1nc(N2CCCCC2)c2nc(N(CCO)CCO)nc(N3CCCCC3)c2n1 [Dipyridamole]
The cell viability of the first is lower: 83.1% for the first, 114% for the second.

Compared with O[C@H]1[C@H](O)[C@@H](O)CN2CC[C@H](O)[C@H]12 [Castanospermine], N#Cc1ccc(C2CCCc3cncn32)cc1 (stereo not given) [Fadrozole] is higher in cell viability: 99% for the first, 115% for the second.

Going from N=C(N)c1ccc(N=NNc2ccc(C(=N)N)cc2)cc1 [Diminazene] to Cc1nc(-c2ccc(OCC(C)C)c(C#N)c2)sc1C(=O)O [Febuxostat], the cell viability falls from 102% to 92.5%.

Work on Cc1cc(O)c2c(c1)C(=O)c1cc(O)cc(O)c1C2=O [Emodin] yielded a cell viability of 103%.

same assay, conditions: 10 nM; 72 h

Compared with CN(C)CCNC(=O)c1cccn2c(=O)c3cc4ccccc4cc3nc12 [Bmh-21], O=C(/C=C/c1cccnc1)NCCCCC1CCN(C(=O)c2ccccc2)CC1 [Daporinad] is lower in cell viability: 113% for the first, 10.3% for the second.

Compared with C=C1C(=O)O[C@H](CCCCCCCC)[C@H]1C(=O)O [C75], O=C(Cc1cccc(OC(F)(F)F)c1)Nc1ccc(CCCCc2nnc(NC(=O)Cc3ccccn3)s2)nn1 [CB-839] is higher in cell viability: 86.8% for the first, 90.4% for the second.

Compared with O=NN(CCCl)C(=O)NCCCl [Carmustine], OCCN(CCO)c1nc(N2CCCCC2)c2nc(N(CCO)CCO)nc(N3CCCCC3)c2n1 [Dipyridamole] is lower in cell viability: 122% for the first, 95.3% for the second.

Compared with O[C@H]1[C@H](O)[C@@H](O)CN2CC[C@H](O)[C@H]12 [Castanospermine], N#Cc1ccc(C2CCCc3cncn32)cc1 (stereo not given) [Fadrozole] is lower in cell viability: 98% for the first, 92.2% for the second.

Going from N=C(N)c1ccc(N=NNc2ccc(C(=N)N)cc2)cc1 [Diminazene] to Cc1cc(O)c2c(c1)C(=O)c1cc(O)cc(O)c1C2=O [Emodin], the cell viability rises from 96.6% to 97.9%.
